These results are taken from article PMC10279920, “Single-molecule visualization of Pif1 helicase translocation on single-stranded DNA” (The Journal of Biological Chemistry, 2023).

Positions count from the first letter of the chain named.

What all share (test): ATP hydrolysis, [γ-32P]-ATP TLC, Michaelis-Menten fit
What all share (assay type): biochemical
Common to all, as to settings: M13 ssDNA 1.5 μM nt, 10 nM Pif1, 5 mM MgCl2, 60 mM KCl, pH 7.5, 30 °C, no RPA; labelled compound as tracer

The target in experiment [1] is T1, Pif1 (unlabeled, WT Pif1) (Saccharomyces cerevisiae, UniProt P07271).
T1 construct: nuclear isoform residues 40-859, pRSF-Duet-1, E. coli Rosetta2(DE3), Ni-NTA purified (tag not described), no GFP
T1 sequence (P07271 40-859): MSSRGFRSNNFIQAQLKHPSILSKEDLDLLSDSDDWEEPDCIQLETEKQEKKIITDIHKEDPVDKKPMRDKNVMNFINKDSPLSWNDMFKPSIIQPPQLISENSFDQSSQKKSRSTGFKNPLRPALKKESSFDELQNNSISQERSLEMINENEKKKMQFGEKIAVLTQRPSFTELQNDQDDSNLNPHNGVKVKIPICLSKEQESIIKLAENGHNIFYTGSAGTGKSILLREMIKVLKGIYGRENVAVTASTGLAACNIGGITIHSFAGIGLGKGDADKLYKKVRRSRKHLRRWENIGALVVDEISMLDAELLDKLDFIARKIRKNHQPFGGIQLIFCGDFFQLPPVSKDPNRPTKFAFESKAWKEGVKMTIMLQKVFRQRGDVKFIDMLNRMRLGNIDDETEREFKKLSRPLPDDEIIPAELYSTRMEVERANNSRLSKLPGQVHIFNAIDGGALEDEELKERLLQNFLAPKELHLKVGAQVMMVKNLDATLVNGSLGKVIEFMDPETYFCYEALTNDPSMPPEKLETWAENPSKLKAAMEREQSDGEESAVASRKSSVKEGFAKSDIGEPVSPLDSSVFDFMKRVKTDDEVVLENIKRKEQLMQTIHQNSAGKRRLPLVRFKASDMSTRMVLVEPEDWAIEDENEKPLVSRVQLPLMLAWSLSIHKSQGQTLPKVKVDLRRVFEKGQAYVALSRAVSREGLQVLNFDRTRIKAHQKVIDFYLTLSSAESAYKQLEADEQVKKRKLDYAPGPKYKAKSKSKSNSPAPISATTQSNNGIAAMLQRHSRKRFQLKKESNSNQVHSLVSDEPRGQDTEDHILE
The protocol: ATP hydrolysis, [γ-32P]-ATP TLC, Michaelis-Menten fit on Pif1 (unlabeled, WT Pif1) | Values for Vmax, Km, and kcat were determined and compared to WT Pif1

The target of experiment [2] is T2, GFP-Pif1 (Saccharomyces cerevisiae, UniProt P07271, E724A).
T2 construct: N-terminal superfolder GFP fusion of nuclear isoform residues 40-859, pRSF-Duet-1, E. coli Rosetta2(DE3), Ni-NTA purified
T2 sequence (P07271 40-859 E724A): T1 sequence (P07271 40-859) with E685A
The protocol:
ATP hydrolysis, [γ-32P]-ATP TLC, Michaelis-Menten fit on GFP-Pif1 | each of the mutant proteins was tested for ATPase activity

Experiment [3] deals with T3, GFP-Pif1 (Saccharomyces cerevisiae, UniProt P07271, T301A).
T3 construct: N-terminal superfolder GFP fusion of nuclear isoform residues 40-859, pRSF-Duet-1, E. coli Rosetta2(DE3), Ni-NTA purified
T3 sequence (P07271 40-859 T301A): T1 sequence (P07271 40-859) with T262A

Consider `Nc1ncnc2c1ncn2[C@@H]1O[C@H](COP(=O)(O)OP(=O)(O)OP(=O)(O)O)[C@@H](O)[C@H]1O` [ATP], for which the Michaelis-Menten constant (Km) in experiment [1] was found to be 490 ± 370 µM; on GFP-Pif1 [2] it was 1470 ± 1370 µM; at GFP-Pif1 [3], 1000 ± 830 µM.

Broadly, the Km is the concentration of substrate that gives half-maximal velocity.
